{
  "source": "patent US20260272897A1",
  "about": "(Bayer Aktiengesellschaft, priority 2024, published 2026)",
  "key": {"[1]": {"conditions": "in vivo; cited from earlier work"}, "[2]": {"test_system": "patients with heart failure and a left ventricular ejection fraction ≥40%", "format": "in vivo"}},
  "note": "Like-named read-outs stand apart in the source and are kept apart here.",
  "data": [
    {"smiles": "CCOc1ncc(C)c2c1[C@H](c1ccc(C#N)cc1OC)C(C(N)=O)=C(C)N2", "note": "[finerenone, (4S)-4-(4-cyano-2-methoxyphenyl)-5-ethoxy-2,8-dimethyl-1,4-dihydro-1,6-naphthyridine-3-carboxamide]", "values": [
      {"measurement": "active metabolites", "setting": "[1]", "value": "no active metabolites"},
      {"measurement": "Total worsening HF events: Event rate per 100 PY", "setting": "[2]; bilirubin Tertile 2 0.5-0.6 mg/dL", "value": 9.7, "unit": "per 100 PY"},
      {"measurement": "Total worsening HF events: Event rate per 100 PY", "setting": "[2]; bilirubin Tertile 3 ≥0.7 mg/dL", "value": 12.6, "unit": "per 100 PY"},
      {"measurement": "primary events (total worsening heart failure events and cardiovascular death), number of events", "setting": "[2]; finerenone group, median 32 months", "value": "1,083"}
    ]}
  ]
}
